According to patent US20130202719A1, “STABILIZED CHLORITE SOLUTIONS IN COMBINATION WITH FLUROPYRIMIDINES FOR CANCER” (NUVO RESEARCH AG, priority 2005, published 2013):

Assays:
[1] = phase II study, advanced or metastatic pancreatic cancer; cited from earlier work
DPD = biological target: T1, DPD (Homo sapiens, UniProt Q12882); conditions: in vivo; cited from earlier work
T1 construct: More than 80% of an administered dose of 5-FU is eliminated by catabolism through DPD
T1 sequence (Q12882 4-1025): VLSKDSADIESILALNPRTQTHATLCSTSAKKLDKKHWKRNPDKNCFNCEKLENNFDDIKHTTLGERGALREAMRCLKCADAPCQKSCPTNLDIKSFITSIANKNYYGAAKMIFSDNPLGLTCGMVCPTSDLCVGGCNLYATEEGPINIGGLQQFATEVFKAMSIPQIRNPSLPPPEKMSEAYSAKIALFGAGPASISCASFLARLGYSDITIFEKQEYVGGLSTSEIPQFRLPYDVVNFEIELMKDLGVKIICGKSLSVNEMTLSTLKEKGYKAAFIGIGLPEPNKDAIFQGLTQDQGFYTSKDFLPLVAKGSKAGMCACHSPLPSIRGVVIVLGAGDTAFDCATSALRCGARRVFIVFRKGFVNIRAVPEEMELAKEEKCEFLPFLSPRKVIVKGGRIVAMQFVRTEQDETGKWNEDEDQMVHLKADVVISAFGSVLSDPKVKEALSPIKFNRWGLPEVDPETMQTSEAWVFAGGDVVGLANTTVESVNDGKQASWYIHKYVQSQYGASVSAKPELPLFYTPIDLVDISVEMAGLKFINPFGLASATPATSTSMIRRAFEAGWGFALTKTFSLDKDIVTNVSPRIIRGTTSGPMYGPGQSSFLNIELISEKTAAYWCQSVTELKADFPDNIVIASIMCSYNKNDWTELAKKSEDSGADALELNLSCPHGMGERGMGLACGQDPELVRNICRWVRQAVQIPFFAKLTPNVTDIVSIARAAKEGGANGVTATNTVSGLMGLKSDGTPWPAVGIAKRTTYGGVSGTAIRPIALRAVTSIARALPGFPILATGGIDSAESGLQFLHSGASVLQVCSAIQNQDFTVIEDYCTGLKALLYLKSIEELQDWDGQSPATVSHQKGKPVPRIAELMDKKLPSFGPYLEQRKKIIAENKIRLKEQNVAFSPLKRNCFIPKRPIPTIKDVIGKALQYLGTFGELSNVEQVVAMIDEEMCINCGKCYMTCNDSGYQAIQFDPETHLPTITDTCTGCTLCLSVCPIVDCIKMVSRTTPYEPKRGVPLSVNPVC

SMILES: Nc1ccn([C@@H]2O[C@H](CO)[C@@H](O)C2(F)F)c(=O)n1 [gemcitabine]
- disease progression (Case Report #3): rapidly progressing metastasis
- QOL (Case Report #3, T4NxM1): declining QOL

SMILES: CCCCCOC(=O)Nc1nc(=O)n([C@@H]2O[C@H](C)[C@@H](O)[C@H]2O)cc1F [capecitabine]
- side effects (human, in vivo): development of Xeloda-related side effects
- Median survival [1]: 182 days

SMILES: O=c1[nH]cc(F)c(=O)[nH]1 [5-FU, 5-Fluorouracil]
- administered dose eliminated by catabolism through DPD (DPD): More than 80%
